The record followed here is patent US9718781B2, “Methods and compounds for treating proliferative disorders and viral infections” (University College Dublin, National University of Ireland, …, priority 2012, dated 2017).

One experiment addresses T1, TPα (Homo sapiens, UniProt P21731).
T1 construct: expressed in transfected cells
T1 sequence (P21731 1-343): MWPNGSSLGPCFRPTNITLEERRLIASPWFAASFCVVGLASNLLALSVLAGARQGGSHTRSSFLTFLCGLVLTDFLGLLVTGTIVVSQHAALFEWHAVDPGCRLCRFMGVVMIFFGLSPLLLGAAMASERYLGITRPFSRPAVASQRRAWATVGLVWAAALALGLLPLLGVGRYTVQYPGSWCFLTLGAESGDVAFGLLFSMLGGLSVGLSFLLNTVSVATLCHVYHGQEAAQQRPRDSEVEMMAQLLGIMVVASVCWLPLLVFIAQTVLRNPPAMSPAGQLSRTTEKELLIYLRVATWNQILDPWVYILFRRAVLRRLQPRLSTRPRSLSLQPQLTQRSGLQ
The experiment is described as follows: U46619-induced [Ca2+]i mobilization in HEK.TPα cells. Particulars: for remaining activity at 1 µM / Percentage of Control, TPα, 1 μM: antagonist 1 μM; for remaining activity at 1 µM / remaining activity at 10 µM / Percentage of Control, TPα, 1 μM / Percentage of Control, TPα, 10 μM / IC50: 1 μM U46619; for remaining activity at 1 µM / remaining activity at 10 µM / Percentage of Control, TPα, 1 μM / Percentage of Control, TPα, 10 μM: % of agonist-induced response in vehicle-treated cells; for remaining activity at 1 µM: read-out: Percentage of Control, TPα, 1 μM; for remaining activity at 10 µM / Percentage of Control, TPα, 10 μM: antagonist 10 μM; for remaining activity at 10 µM: read-out: Percentage of Control, TPα, 10 μM; for IC50: HEK.TPα cells, Table 2, read-out: IC50 data for U46619-mediated [Ca2+]i mobilization, TPα; for TPα:TPβ Selectivity Ratio: IC50 TPα/IC50 TPβ. It is filed as cell-based. The text has this: (§1) An appropriate functional test for the evaluation of the agonistic and/or antagonistic potency of the compounds of the invention is the determination of calcium flux. Both TPα and TPβ are coupled to the G-protein Gαq. Therefore, stimulation of these receptors ultimately leads to a release of intracellular calcium ([Ca^2+]i) from intracellular stores. Consequently, the determination of [Ca^2+]i flux represents an appropriate functional test for the evaluation of the agonistic/antagonistic potency of compounds of the invention. Calcium can be measured using a molecule characterized by the covalent combination of a Ca^2+ chelating group and a fluorophore group. The Ca^2+ binding properties of these indicators are formed by the presence of a tetracarboxylic acid core as found for example in EGTA (Ethylene Glycol bis(2-aminoethyl)Tetraacetic Acid). Binding of Ca^2+ produces a wavelength shift in either the excitation or emission fluorescence spectra or a change in the emission intensity. Whereas the Ca^2+ binding to EGTA is pH dependent, recent dyes are designed from an EGTA derivative, BAPTA (1,2-Bis(2-Aminophenoxy)ethane-N,N,N′,N′-Tetraacetic Acid). Loading of these dyes inside cells commonly uses esterified forms (acetoxymethyl ester), which are able to cross the cell membranes and are subsequently hydrolyzed by esterases inside the cell.
(§2) Estimation of [Ca^2+]i flux is calculated from the fluorescence signal (F). For calibration, the maximal fluorescence (Fmax, Ca^2+-saturated form of the dye) as well as minimal fluorescence (Fmin, Ca^2+-free form of the dye) must be determined. These parameters are determined usually in situ after the experiment, for example by subsequent addition to the mixture of a cell-disrupting agent that releases all Ca^2+ such as Triton X100 and a potent Ca^2+-chelating agent such as EGTA. After subtraction of background fluorescence, [Ca^2+]; flux can be calculated for non-ratiometric indicators.
(§3) Intracellular [Ca^2+]; fluxes were measured using a fluorescence plate reader following a modified protocol of Kassack et al., ‘Quantitative comparison of functional screening by measuring intracellular Ca^2+ with radioligand binding at recombinant human dopamine receptors’, AAPS Pharmsci, 2002, 4(4); 102-111, in cell lines (e.g. HEK293 or other cell type) endogenously-expressing or over-expressing either TPα, TPβ or any other receptor or protein to be screened.
(§4) By way of example, HEK 293 cells which have been grown for 3-4 days in normal growth media (minimum essential media containing 10% FBS and 2 mmol/1 L-glutamine), under normal growth conditions (37° C., in humidified 5% CO2 atmosphere) are washed and harvested in KREBs-HEPES buffer (118 mM NaCl, 4.7 mM KCl, 1.2 mM MgSO4, 1.2 mM KH2PO4, 4.2 mM NaHCO3, 11.7 mM D-glucose, 1.3 mM CaCl2, 10 mM HEPES, pH 7.4). Cells are then incubated with 3 μM Fluo-4 in KREBs-HEPES buffer containing 1% Pluoronic F-127, for 1 hr at 25° C. with agitation. Then, cells are washed in KREBs-HEPES buffer containing 0.5% BSA and re-suspended at a final concentration of 3×10^5 cells/ml. Approx. 5.4×10^4 cells per well are plated in a 96-well plate and pre-incubated with test compounds for 10 m prior to measuring the fluorescence intensity at 520 nm for 25 seconds at 1 s intervals to monitor baseline using the Fluoroskan Ascent. Agonist (e.g., 1 μM U46619) is injected into separate wells by the automatic pipettor and fluorescence intensity is monitored at 520 nm for 75 seconds at 1 s intervals. Thereafter, Triton X100 and EGTA are added sequentially where Fmax refers to maximal fluorescence intensity measured after permeabilization of the cells with 2% Triton X100 and Fmin refers to fluorescence intensity measured after addition of 1 mM EGTA.
(§5) The dye Fluo-4 has its excitation peak at 480 nm, in the visible spectra, which spare cells to be damaged by UV (340-360 nm) stimulation and reduces auto-fluorescence of cells. […]

Another experiment concerns the target T2, TPβ (Homo sapiens, UniProt P21731).
T2 construct: expressed in transfected cells
Put plainly: U46619-induced [Ca2+]i mobilization in HEK.TPβ cells. It is filed as cell-based. The note with it: 1 μM U46619; for remaining activity at 1 µM / remaining activity at 10 µM / Percentage of Control, TPβ, 1 μM / Percentage of Control, TPβ, 10 μM: % of agonist-induced response in vehicle-treated cells; for remaining activity at 1 µM: read-out: Percentage of Control, TPβ, 1 μM; for remaining activity at 10 µM / Percentage of Control, TPβ, 10 μM: antagonist 10 μM; for remaining activity at 10 µM: read-out: Percentage of Control, TPβ, 10 μM; for IC50: HEK.TPβ cells, Table 2, read-out: IC50 data for U46619-mediated [Ca2+]i mobilization, TPβ.
From the text: as §1, §2, §3, §4, §5

T2 sequence (P21731 1-407 isoform P21731-2): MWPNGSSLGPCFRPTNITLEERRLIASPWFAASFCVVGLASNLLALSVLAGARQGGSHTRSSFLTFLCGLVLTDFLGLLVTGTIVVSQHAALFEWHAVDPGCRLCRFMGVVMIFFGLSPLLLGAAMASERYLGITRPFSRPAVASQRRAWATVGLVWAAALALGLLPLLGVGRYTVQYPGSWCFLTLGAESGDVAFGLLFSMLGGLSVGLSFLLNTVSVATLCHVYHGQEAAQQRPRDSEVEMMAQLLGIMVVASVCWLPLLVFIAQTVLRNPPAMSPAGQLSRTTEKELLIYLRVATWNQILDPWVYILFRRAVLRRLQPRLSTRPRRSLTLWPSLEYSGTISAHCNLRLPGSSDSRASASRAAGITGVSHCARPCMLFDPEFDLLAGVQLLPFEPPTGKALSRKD

Turning to `COc1ccc(-c2cccc(Oc3ccc(Cl)cc3S(=O)(=O)NC(=O)NC(C)(C)C)c2)cc1` [NTP30, N-(tert-butylcarbamoyl)-5-chloro-2-((4′-methoxy-[1,1′-biphenyl]-3-yl)oxy)benzenesulfonamide], on TPα, the remaining activity at 1 µM came to 52.2 ± 3.9% and the remaining activity at 10 µM stood at 23.3 ± 3.63%. In addition, at TPβ (antagonist 1 μM), the “activity class in HEK.TPβ cells” value is “ACTIVE” and the remaining activity at 1 µM is 46.5 ± 5.86%. Also, the remaining activity at 10 µM at TPβ came out at 9.31 ± 1.57%.

With `COc1ccc(-c2cccc(Oc3ccncc3S(=O)(=O)NC(=O)NC(C)(C)C)c2)cc1` [NTP31, N-(tert-butylcarbamoyl)-4-((4′-methoxy-[1,1′-biphenyl]-3-yl)oxy)pyridine-3-sulfonamide], the remaining activity at 1 µM at TPα was 77.3 ± 8.72%; at TPβ (antagonist 1 μM), 74.8 ± 5.49%. The values for the remaining activity at 10 µM on TPα and on TPβ were 52.7 ± 2.89% and 27.7 ± 4.21%, respectively.

For the compound `COc1ccc(-c2cccc(Oc3cc(C)c(C#N)cc3S(=O)(=O)NC(=O)NC(C)(C)C)c2)cc1` [NTP32, N-(tert-butylcarbamoyl)-5-cyano-2-((4′-methoxy-[1,1′-biphenyl]-3-yl)oxy)-4-methyl benzenesulfonamide], on TPα, the “Percentage of Control, TPα, 1 μM” value worked out at 80.3 ± 4.21% and the “Percentage of Control, TPα, 10 μM” value is reported as 69.3 ± 2.07%. Also, the “Percentage of Control, TPβ, 1 μM” value on TPβ (antagonist 1 μM) was determined as 93.6 ± 4.06%. Also, the “Percentage of Control, TPβ, 10 μM” value at TPβ amounted to 46.2 ± 4.83%.

For the compound `COc1ccc(-c2cccc(Oc3ccc(C#N)cc3S(=O)(=O)NC(=O)NC(C)(C)C)c2)cc1` [NTP33, N-(tert-butylcarbamoyl)-5-cyano-2-((4′-methoxy-[1,1′-biphenyl]-3-yl)oxy)benzene-sulfonamide], at TPα, the “Percentage of Control, TPα, 1 μM” value was 103 ± 6.25% and the “Percentage of Control, TPα, 10 μM” value worked out at 82.4 ± 5.86%. Besides, the “Percentage of Control, TPβ, 1 μM” value at TPβ (antagonist 1 μM) was found to be 75.6 ± 6.46%. Moreover, the “Percentage of Control, TPβ, 10 μM” value on TPβ was determined as 34.5 ± 1.56%.

Consider `COc1ccc(-c2cccc(Oc3cc[n+]([O-])cc3S(=O)(=O)NC(=O)NC(C)(C)C)c2)cc1` [NTP41, 3-(N-(tert-butylcarbamoyl)sulfamoyl)-4-((4′-methoxy-[1,1′-biphenyl]-3-yl)oxy)pyridine 1-oxide], for which the remaining activity at 1 µM is 82.6 ± 3.41% at TPα and 72.2 ± 5.66% on TPβ (antagonist 1 μM). Moreover, the figures for the remaining activity at 10 µM on TPα and on TPβ were 52.8 ± 8.03% and 18.8 ± 1.77%, respectively.

Consider `CCCCCNC(=O)NS(=O)(=O)c1cc([N+](=O)[O-])ccc1Oc1cccc(-c2ccc(OC)cc2)c1` [XLIII], for which, on TPα, the IC50 came out at 13 µM and the “TPα:TPβ Selectivity Ratio” value was 1.4. Also, the IC50 on TPβ was determined as 9.33 µM.

In the case of `CC(C)(C)NC(=O)NS(=O)(=O)c1cc([N+](=O)[O-])ccc1Oc1cccc(I)c1` [XXXVIII, 2-(3-Iodophenoxy)-5-nitrobenzene(t-butyl)sulfonyl urea], at TPα, the IC50 was found to be 4.01 µM and the “TPα:TPβ Selectivity Ratio” value came out at 2. The IC50 on TPβ came to 1.99 µM.

Usually IC50 stands for the concentration at which inhibition is half-maximal.
